# Reference: US9139532B2, “Pyrazolyl guanidine F1F0-atpase inhibitors and therapeutic uses thereof” (Lycera Corporation, priority 2010, dated 2015)
# Read-outs that look alike come from different tables or passages of the source.
# Legend:
# F1F0-ATPase = biological target: T1, F1F0-ATPase (Bos taurus, UniProt P13621); experiment: Inhibition of F1F0-ATPase activity in synthesizing ATP; format: biochemical; details: inhibition of ATP synthesis by F1F0-ATPase; read-out: ATP Syn IC50
# T1 construct: from tissue
# Ramos cells = experiment: Cytotoxicity in Ramos cells; format: cell-based; details: cytotoxicity in Ramos cells, read-out: Ramos Cell EC50
IC50 (F1F0-ATPase) [µM],Structure (SMILES),EC50 (Ramos cells; Homo sapiens) [µM],EC50 (Ramos cells) [µM]
< 10,O=C(N=C(Nc1cc(-c2ccc(Cl)cc2)n[nH]1)NC1CCCC1)c1ccc(Cl)c(F)c1 [Compound A-382],< 10,–
< 10,CC(C)NC(=NC(=O)c1ccc(Cl)c(F)c1)Nc1cc(-c2ccc(Cl)cc2)n[nH]1 [Compound A-383],< 10,–
< 10,COCC(C)NC(=NC(=O)c1cccc(F)c1)Nc1cc(-c2ccc(Cl)cc2)n[nH]1 (stereo not drawn) [Compound A-384],–,< 10
< 10,O=C(/N=C(\Nc1cc(-c2ccc(Cl)cc2)n[nH]1)NC1CCCC1)c1cccc(F)c1 [Compound A-385],–,< 10
< 10,CC(C)N/C(=N/C(=O)c1cccc(F)c1)Nc1cc(-c2ccc(Cl)cc2)n[nH]1 [Compound A-386],–,< 10
< 10,COc1cccc(F)c1C(=O)/N=C(\Nc1cc(-c2ccc(F)cc2)n[nH]1)NC(C)(C)C [Compound A-387],–,> 10
< 10,O=C(/N=C(\Nc1cc(-c2ccc(F)cc2)n[nH]1)NC1CCCC1)c1cccc(F)c1 [Compound A-388],–,< 10
< 10,COCC(C)NC(=NC(=O)c1cccc(F)c1)Nc1cc(-c2ccc(F)cc2)n[nH]1 (stereo not drawn) [Compound A-389],–,< 10
< 10,CC(C)N/C(=N/C(=O)c1cccc(F)c1)Nc1cc(-c2ccc(F)cc2)n[nH]1 [Compound A-390],–,> 10
> 10,C[C@@H](CO)N/C(=N/C(=O)c1ccc(F)cc1)Nc1cc(-c2ccc(F)cc2)n[nH]1 [Compound A-391],–,> 10
< 10,COc1cccc(CN/C(=N/C(=O)c2ccc(F)c(C)c2)Nc2cc(-c3ccc(F)cc3)n[nH]2)c1 [Compound A-392],–,< 10
< 10,Cc1cc(C(=O)/N=C(/NCc2ccccc2C)Nc2cc(-c3ccc(F)cc3)[nH]n2)ccc1F [Compound A-393],–,< 10
< 10,COc1cccc(CN/C(=N/C(=O)c2cccc(OC)c2)Nc2cc(-c3ccc(F)cc3)[nH]n2)c1 [Compound A-394],–,< 10
< 10,COc1cccc(C(=O)/N=C(/NCc2ccccc2C)Nc2cc(-c3ccc(F)cc3)[nH]n2)c1 [Compound A-395],–,< 10
< 10,COc1cccc(CN/C(=N/C(=O)c2cc(F)c(F)c(F)c2)Nc2cc(-c3ccc(F)cc3)[nH]n2)c1 [Compound A-396],–,< 10
< 10,Cc1ccccc1CN/C(=N/C(=O)c1cc(F)c(F)c(F)c1)Nc1cc(-c2ccc(F)cc2)[nH]n1 [Compound A-397],–,< 10
< 10,COc1cccc(CN/C(=N/C(=O)c2cccc(F)c2)Nc2cc(-c3ccc(F)cc3)[nH]n2)c1 [Compound A-398],–,< 10
< 10,Cc1ccccc1CN/C(=N/C(=O)c1cccc(F)c1)Nc1cc(-c2ccc(F)cc2)[nH]n1 [Compound A-399],–,< 10
< 10,COc1cccc(CNC(=NC(=O)c2ccc(Cl)cc2)Nc2cc(-c3ccc(F)cc3)n[nH]2)c1 [Compound A-400],< 10,–
< 10,Cc1ccccc1CNC(=NC(=O)c1ccc(Cl)cc1)Nc1cc(-c2ccc(F)cc2)n[nH]1 [Compound A-401],< 10,–

IC50 (F1F0-ATPase) [µM],Structure (SMILES),EC50 (Ramos cells; Homo sapiens) [µM],EC50 (Ramos cells) [µM]
< 10,CCOc1cccc(C(=O)/N=C(\Nc2cc(-c3ccc(F)cc3)[nH]n2)NC(C)(C)C)c1 [Compound A-402],–,< 10
< 10,CC(C)(C)NC(=NC(=O)c1cc(F)c(F)c(F)c1)Nc1cc(-c2ccc(F)cc2)n[nH]1 [Compound A-403],< 10,–
< 10,Cc1cc(C(=O)N=C(Nc2cc(C(F)(F)F)[nH]n2)NC(C)CO)ccc1F (stereo not drawn) [Compound A-404],–,> 10
< 10,Cc1cc(C(=O)/N=C(\Nc2cc(-c3ccc(F)cc3)[nH]n2)N[C@@H](C)CO)ccc1F [Compound A-405],–,< 10
< 10,O=C(/N=C(/NCC1CCOC1)Nc1cc(C(F)(F)F)[nH]n1)c1ccc(F)cc1 (stereo not drawn) [Compound A-406],–,> 10
< 10,COCCCN/C(=N/C(=O)c1ccc(F)cc1)Nc1cc(C(F)(F)F)[nH]n1 [Compound A-409],–,> 10
< 10,CCOCCN/C(=N/C(=O)c1ccc(F)cc1)Nc1cc(C(F)(F)F)[nH]n1 [Compound A-410],–,> 10
< 10,O=C(/N=C(/NCc1nccs1)Nc1cc(C(F)(F)F)[nH]n1)c1ccc(F)cc1 [Compound A-411],–,> 10
< 10,CC1(C)OCC(CN/C(=N/C(=O)c2ccc(F)cc2)Nc2cc(C(F)(F)F)[nH]n2)O1 (stereo not drawn) [Compound A-412],–,> 10
< 10,O=C(/N=C(/NCC1CCCO1)Nc1cc(C(F)(F)F)[nH]n1)c1ccc(F)cc1 (stereo not drawn) [Compound A-413],–,> 10
< 10,Cc1ccc(CN/C(=N/C(=O)c2ccc(F)cc2)Nc2cc(C(F)(F)F)[nH]n2)o1 [Compound A-414],–,< 10
< 10,O=C(/N=C(\Nc1cc(C(F)(F)F)[nH]n1)NC1(CO)CCCC1)c1ccc(F)cc1 [Compound A-415],–,> 10
< 10,Cc1csc(CN/C(=N/C(=O)c2ccc(F)cc2)Nc2cc(C(F)(F)F)[nH]n2)n1 [Compound A-416],–,> 10
< 10,Cc1cc(-c2cc(N/C(=N\C(=O)c3ccc(C(F)(F)F)cc3)NC(C)(C)C)n[nH]2)ccc1F [Compound A-417],–,< 10
< 10,Cc1cc(-c2cc(N/C(=N\C(=O)c3ccc(F)cc3)NC(C)(C)C)n[nH]2)ccc1F [Compound A-418],–,< 10
< 10,O=C(N=C(Nc1cc(F)cc(Cl)c1)Nc1cc(-c2cc(F)cc(F)c2)[nH]n1)c1ccc(F)c(F)c1 [Compound A-419],< 10,–
< 10,CC(C)(C)N/C(=N/C(=O)c1ccc(F)c(F)c1)Nc1cc(-c2cc(F)cc(F)c2)[nH]n1 [Compound A-420],–,< 10
< 10,O=C(/N=C(\Nc1cc(-c2cccc(C(F)(F)F)c2)[nH]n1)NC1CCCC1)c1ccc(C(F)(F)F)cc1 [Compound A-421],–,< 10
< 10,O=C(N=C(Nc1cc(F)cc(Cl)c1)Nc1cc(-c2cccc(C(F)(F)F)c2)[nH]n1)c1ccc(F)c(F)c1 [Compound A-422],< 10,–
< 10,CC(C)(C)N/C(=N/C(=O)c1ccc(F)c(F)c1)Nc1cc(-c2cccc(C(F)(F)F)c2)[nH]n1 [Compound A-423],–,< 10

IC50 (F1F0-ATPase) [µM],Structure (SMILES),EC50 (Ramos cells; Homo sapiens) [µM],EC50 (Ramos cells) [µM]
< 10,COc1ccccc1CN/C(=N/C(=O)c1ccc(C(F)(F)F)cc1)Nc1cc(C(F)(F)F)[nH]n1 [Compound A-424],–,< 10
< 10,COc1ccc(CN/C(=N/C(=O)c2ccccc2)Nc2cc(C(F)(F)F)[nH]n2)cc1 [Compound A-425],–,< 10
< 10,Cc1ccc(-c2cc(NC(=NC(=O)c3ccc(C(F)(F)F)cc3)NC(C)(C)C)[nH]n2)cc1 [Compound A-426],> 10,–
< 10,Cc1ccc(-c2cc(N/C(=N\C(=O)c3ccc(F)c(F)c3)NC(C)(C)C)[nH]n2)cc1 [Compound A-427],–,< 10
< 10,Cc1ccc(-c2cc(N/C(=N\C(=O)c3ccc(F)c(F)c3)Nc3cc(F)cc(Cl)c3)[nH]n2)cc1 [Compound A-428],–,> 10
< 10,CC(C)CN/C(=N/C(=O)c1cccc(S(C)(=O)=O)c1)Nc1cc(-c2ccc(F)cc2)n[nH]1 [Compound A-429],–,< 10
< 10,CCC(C)N/C(=N/C(=O)c1cccc(S(C)(=O)=O)c1)Nc1cc(-c2ccc(F)cc2)n[nH]1 (stereo not drawn) [Compound A-430],–,< 10
< 10,CCc1ccc(-c2cc(N/C(=N\C(=O)c3ccc(F)c(F)c3)NC(C)(C)C)[nH]n2)cc1 [Compound A-431],–,< 10
< 10,CCc1ccc(-c2cc(N/C(=N\C(=O)c3ccc(C(F)(F)F)cc3)NC(C)(C)C)[nH]n2)cc1 [Compound A-432],–,> 10
< 10,Cc1ccc(-c2cc(N/C(=N\C(=O)c3ccc(F)c(F)c3)NC(C)(C)C)[nH]n2)cc1F [Compound A-433],–,< 10
< 10,Cc1ccc(-c2cc(NC(=NC(=O)c3ccc(C(F)(F)F)cc3)NC(C)(C)C)[nH]n2)cc1F [Compound A-434],> 10,–
< 10,CC(C)(C)NC(=NC(=O)c1ccc(F)c(F)c1)Nc1cc(-c2ccccc2)n[nH]1 [Compound A-435],< 10,–
< 10,O=C(/N=C(/Nc1cc(F)cc(Cl)c1)Nc1cc(-c2ccccc2)n[nH]1)c1ccc(F)c(F)c1 [Compound A-436],–,> 10
< 10,CC(C)(C)N/C(=N/C(=O)c1cccc(C(F)(F)F)c1)Nc1cc(-c2ccc(Cl)cc2)n[nH]1 [Compound A-437],–,< 10
< 10,CC(C)(C)N/C(=N/C(=O)c1cccc(F)c1)Nc1cc(-c2cccc(Cl)c2)n[nH]1 [Compound A-438],–,< 10
< 10,CC(C)(C)NC(=NC(=O)c1ccc(C(F)(F)F)cc1)Nc1cc(-c2cccc(Cl)c2)[nH]n1 [Compound A-439],< 10,–
< 10,O=C(N=C(NCc1ccc(F)cc1Cl)Nc1cc(-c2ccc(F)cc2)n[nH]1)c1ccc(F)c(F)c1 [Compound A-440],< 10,–
< 10,O=C(/N=C(/Nc1cc(F)cc(Cl)c1)Nc1cc(-c2ccc(F)cc2)n[nH]1)c1ccc(F)c(F)c1 [Compound A-441],–,< 10
< 10,O=C(N=C(Nc1cc(F)cc(Cl)c1)Nc1cc(-c2cccc(Cl)c2)[nH]n1)c1ccc(F)c(F)c1 [Compound A-442],< 10,–
< 10,O=C(/N=C(/NCc1ccc(F)cc1Cl)Nc1cc(-c2ccc(F)cc2)n[nH]1)c1ccc(C(F)(F)F)cc1 [Compound A-443],–,< 10
